Tests used:
SK-MEL-28 = experiment: NCI cancer cell line panel screening (SRB), melanoma cell line SK-MEL-28; type: cell-based, human; conditions: Homo sapiens, read-out: IC50 against melanoma cell line in vitro
Method: (§1) According to the standard protocol (http://dtp.nci.nih.gov/dtpstandard/dwindex/index.isp) of the US National Cancer Institute (NCI) (www.dtp.nci.nih.gov), screening of a cancer cell line panel was performed. […] For a general screening experiment, cells were inoculated in 96-well microtiter plates in 100 μl at a plating density ranging from 5000 cells/well to 40,000 cells/well depending on the doubling time of individual cell lines. After cell inoculation, the microtiter plates were incubated at 37° C., 5% CO2, 95% air, and 100% relative humidity for 24 hours prior to addition of test compounds. 24 hours later, two plates of each cell line were fixed in situ with trichloroacetic acid (TCA) to measure the cell population for each cell line at the time of test compound addition (Tz). Test compounds were solubilized in dimethyl sulfoxide at 400-fold the intended final maximum test concentration, and stored frozen prior to use. At the time of compound addition, an aliquot of frozen concentrate was thawed and diluted to twice the intended final maximum test concentration with a complete medium containing 50 μg/ml of gentamicin. Additional four concentration of 10-fold or ½ log serial dilutions were made to provide a total of five compound concentrations plus control. Aliquots of 100 μl of these different compound dilutions were added to appropriate microtiter wells already containing 100 μl of medium, resulting in the required final compound concentrations.
(§2) Following compound addition, the plates were incubated for additional 48 hours at 37° C., 5% CO2, 95% air, and 100% relative humidity. For adherent cells, the assay was terminated by the addition of cold TCA. Cells were fixed in situ by the gentle addition of 50 μl of cold 50% (w/v) TCA (final concentration, 10% TAC) and incubated at 4° C. for 60 minutes. The supernatant was discarded, and the plates were washed five times with tap water and air-dried. A sulforhodamine B (SRB) solution (100 μl) at 0.4% (w/v) in 1% acetic acid was added to each well, and plates were incubated at room temperature for 10 minutes. After staining, unbound dye was removed by washing five times with 1% acetic acid and the plates were air-dried. […] For suspension cells, the methodology was the same except that the assay was terminated by fixing settled cells at the bottom of the wells by gently adding 50 μl of 80% TCA (final concentration, 16% TCA). Using the seven absorbance measurements [time zero (Tz), control growth (C), and test growth rate in the presence of compound at the five concentration levels (Ti)], the growth percentage was calculated at each of the compound concentration levels. Growth inhibition percentage was calculated as follows: [(Ti−Tz)/(C−Tz)]×100 for concentrations for which Ti>/=Tz [(Ti−Tz)/Tz]×100 for concentrations for which Ti<Tz.

M14 = experiment: NCI cancer cell line panel screening (SRB), melanoma cell line M14; type: cell-based; conditions: Homo sapiens, read-out: IC50 against melanoma cell line in vitro
Method: According to the standard protocol (http://dtp.nci.nih.gov/dtpstandard/dwindex/index.isp) of the US National Cancer Institute (NCI) (www.dtp.nci.nih.gov), screening of a cancer cell line panel was performed. Briefly, human cell lines were allowed to grow in an RPMI 1640 medium containing 5% FBS and 2 mM L-glutamine. For a general screening experiment, cells were inoculated in 96-well microtiter plates in 100 μl at a plating density ranging from 5000 cells/well to 40,000 cells/well depending on the doubling time of individual cell lines. After cell inoculation, the microtiter plates were incubated at 37° C., 5% CO2, 95% air, and 100% relative humidity for 24 hours prior to addition of test compounds. 24 hours later, two plates of each cell line were fixed in situ with trichloroacetic acid (TCA) to measure the cell population for each cell line at the time of test compound addition (Tz). Test compounds were solubilized in dimethyl sulfoxide at 400-fold the intended final maximum test concentration, and stored frozen prior to use. At the time of compound addition, an aliquot of frozen concentrate was thawed and diluted to twice the intended final maximum test concentration with a complete medium containing 50 μg/ml of gentamicin. Additional four concentration of 10-fold or ½ log serial dilutions were made to provide a total of five compound concentrations plus control. Aliquots of 100 μl of these different compound dilutions were added to appropriate microtiter wells already containing 100 μl of medium, resulting in the required final compound concentrations.
Following compound addition, the plates were incubated for additional 48 hours at 37° C., 5% CO2, 95% air, and 100% relative humidity. For adherent cells, the assay was terminated by the addition of cold TCA. Cells were fixed in situ by the gentle addition of 50 μl of cold 50% (w/v) TCA (final concentration, 10% TAC) and incubated at 4° C. for 60 minutes. The supernatant was discarded, and the plates were washed five times with tap water and air-dried. A sulforhodamine B (SRB) solution (100 μl) at 0.4% (w/v) in 1% acetic acid was added to each well, and plates were incubated at room temperature for 10 minutes. After staining, unbound dye was removed by washing five times with 1% acetic acid and the plates were air-dried. Bound stain was subsequently solubilized with 10 mM Trizma base, and the absorbance was read on an automated plate reader at a wavelength of 515 nm. For suspension cells, the methodology was the same except that the assay was terminated by fixing settled cells at the bottom of the wells by gently adding 50 μl of 80% TCA (final concentration, 16% TCA). Using the seven absorbance measurements [time zero (Tz), control growth (C), and test growth rate in the presence of compound at the five concentration levels (Ti)], the growth percentage was calculated at each of the compound concentration levels. Growth inhibition percentage was calculated as follows: [(Ti−Tz)/(C−Tz)]×100 for concentrations for which Ti>/=Tz [(Ti−Tz)/Tz]×100 for concentrations for which Ti<Tz.

SK-MEL-2 = experiment: NCI cancer cell line panel screening (SRB), melanoma cell line SK-MEL-2; type: cell-based, human; conditions: Homo sapiens, read-out: IC50 against melanoma cell line in vitro
Method: as §1, §2

SK-MEL-5 = experiment: NCI cancer cell line panel screening (SRB), melanoma cell line SK-MEL-5; type: cell-based, human; conditions: Homo sapiens, read-out: IC50 against melanoma cell line in vitro
Method: as §1, §2

C-RAF = C-RAF (Homo sapiens (Human), UniProt P04049, Y340D/Y341D); experiment: Protein kinase enzymatic activity (Reaction Biology kinase hotspot, 33P-ATP); type: biochemical; conditions: read-out: Inhibitory effect against kinase activity, C-RAF (IC50)
Method: (§3) Reaction biology kinase hotspot service (http://www.reactionbiology.com) was used to measure IC50. In a final reaction volume of 25 μL, kinase (5 mU to 10 mU) was incubated with 25 mM Tris (pH 7.5), 0.02 mM EGTA, 0.66 mg/ml of myelin basic protein, 10 mM magnesium acetate, and [^33P-ATP] (specific activity of about 500 CPM/pmol, concentration as required). The reaction was initiated by addition of Mg-ATP mix. After incubation for 40 min at room temperature, the reaction was stopped by addition of 5 μl of a 3% phosphoric acid solution. 10 μL of the reaction was then spotted onto a P30 filtermat and washed three times for 5 minutes in 75 mM phosphoric acid and once in methanol prior to drying and scintillation counting.

B-RAF = B-RAF (Homo sapiens (Human), UniProt P15056); experiment: as above; type: biochemical; conditions: read-out: Inhibitory effect against kinase activity, B-RAF (IC50)
Method: as §3

V600E-B-RAF = V600E-B-RAF (Homo sapiens (Human), UniProt P15056, V600E); experiment: as above; type: biochemical; conditions: read-out: Inhibitory effect against kinase activity, V600E-B-RAF (IC50)
Method: as §3

V600E-B-RAF, sequence (P15056 whole entry V600E): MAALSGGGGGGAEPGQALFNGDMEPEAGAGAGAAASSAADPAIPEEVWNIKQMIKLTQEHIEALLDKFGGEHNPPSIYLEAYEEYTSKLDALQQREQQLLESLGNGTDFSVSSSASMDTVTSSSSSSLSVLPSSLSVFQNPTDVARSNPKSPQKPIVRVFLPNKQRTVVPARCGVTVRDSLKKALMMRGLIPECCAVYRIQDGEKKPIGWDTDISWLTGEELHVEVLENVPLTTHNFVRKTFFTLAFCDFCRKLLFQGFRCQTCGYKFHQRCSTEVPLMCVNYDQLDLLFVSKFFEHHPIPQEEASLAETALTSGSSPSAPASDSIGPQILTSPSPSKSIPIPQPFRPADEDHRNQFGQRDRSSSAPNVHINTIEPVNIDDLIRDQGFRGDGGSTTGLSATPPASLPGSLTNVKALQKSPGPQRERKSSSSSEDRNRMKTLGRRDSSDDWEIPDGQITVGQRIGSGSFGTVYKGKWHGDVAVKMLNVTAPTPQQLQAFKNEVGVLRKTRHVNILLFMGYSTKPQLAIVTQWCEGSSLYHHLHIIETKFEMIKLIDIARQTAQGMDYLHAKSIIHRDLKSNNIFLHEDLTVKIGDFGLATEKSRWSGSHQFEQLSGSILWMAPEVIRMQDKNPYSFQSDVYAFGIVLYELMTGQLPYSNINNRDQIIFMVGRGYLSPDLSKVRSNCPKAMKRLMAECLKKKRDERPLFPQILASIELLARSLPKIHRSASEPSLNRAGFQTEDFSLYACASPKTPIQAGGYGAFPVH
B-RAF, sequence (P15056 whole entry): as the sequence (P15056 whole entry V600E) above, with E600V counted along it
C-RAF, sequence (P04049 306-648 Y340D/Y341D limits assumed): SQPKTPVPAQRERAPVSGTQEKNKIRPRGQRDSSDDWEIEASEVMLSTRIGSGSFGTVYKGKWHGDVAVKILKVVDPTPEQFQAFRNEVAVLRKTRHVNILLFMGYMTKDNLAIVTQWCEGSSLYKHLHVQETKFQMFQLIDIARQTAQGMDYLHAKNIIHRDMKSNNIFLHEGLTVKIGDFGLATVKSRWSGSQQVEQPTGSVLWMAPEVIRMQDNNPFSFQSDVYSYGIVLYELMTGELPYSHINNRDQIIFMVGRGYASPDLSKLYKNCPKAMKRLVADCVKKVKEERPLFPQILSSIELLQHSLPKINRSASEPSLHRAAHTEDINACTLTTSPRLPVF

## CCN1CCN(CCNc2nccc(-c3c(-c4cccc(O)c4)nc4occn34)n2)S1(=O)=O [2II, 2-Ethyl-5-(2-((4-(6-(3-hydroxylphenyl)imidazo[2,1-b]oxazol-5-yl)pyrimidin-2-yl)amino)ethyl)-1,2,5-thiadiazolidine 1,1-dioxide]
SK-MEL-28
  IC50: 130 nM
M14
  IC50: 140 nM
SK-MEL-2
  IC50: 2600 nM
SK-MEL-5
  IC50: 6280 nM
C-RAF
  IC50: 0.75 nM
B-RAF
  IC50: < 0.04 nM
V600E-B-RAF
  IC50: 0.67 nM

— US10570155B2, “Imidazooxazole derivative having antitumor effect, and pharmaceutical composition including same” (KOREA INSTITUTE OF SCIENCE AND TECHNOLOGY, priority 2016, dated 2020)
